Measured values: the supplement of paper PMC10307832

How the values were obtained:
Test in all cases: relative viability (nuclei count vs DMSO), 5 days (fraction); higher = more cells survive
Bortezomib + OSI-027 = compound: CC(C)C[C@H](NC(=O)[C@H](Cc1ccccc1)NC(=O)c1cnccn1)B(O)O [Bortezomib] + COc1cccc2cc(-c3nc([C@H]4CC[C@H](C(=O)O)CC4)n4ncnc(N)c34)[nH]c12 [OSI-027] (partner 0.5 µM)
Procedure, shortened: (§1)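 Lung cancer cell lines in 1536-well plates got either a single drug or a fixed anchor-drug dose together with five library-drug doses (not always all listed) in √10 steps, by pin tool, on the day after seeding. Nuclei were counted after 5 days, and relative viability is the treated-to-vehicle ratio of nuclei counts. Values are medians of duplicate plates.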

[1] = compound: CC1=CC(=NN1)NC2=CC(=NC(=N2)/C=C/C3=CC=CC=C3)N4CCN(CC4)C + N=C(N)NC(=N)NCCc1ccccc1 [Phenformin] (partner 250 µM)
Procedure, shortened: as §1

[2] = compound: CC1=CC(=NN1)NC2=CC(=NC(=N2)/C=C/C3=CC=CC=C3)N4CCN(CC4)C + O=C(c1cc(Cc2n[nH]c(=O)c3ccccc23)ccc1F)N1CCN(C(=O)C2CC2)CC1 [Olaparib] (partner 8 µM)
Procedure, shortened: as §1

Obatoclax + Navitoclax = compound: COC1=CC(c2cc3ccccc3[nH]2)=N/C1=C\c1[nH]c(C)cc1C [Obatoclax] + CC1(C)CCC(c2ccc(Cl)cc2)=C(CN2CCN(c3ccc(C(=O)NS(=O)(=O)c4ccc(N[C@H](CCN5CCOCC5)CSc5ccccc5)c(S(=O)(=O)C(F)(F)F)c4)cc3)CC2)C1 [Navitoclax] (partner 0.5 µM)
Procedure, shortened: as §1

Cell Line | relative viability (Bortezomib + OSI-027; first compound 0.0002 µM) | relative viability (Bortezomib + OSI-027; first compound 0.000632 µM) | relative viability (Bortezomib + OSI-027; first compound 0.002 µM) | relative viability (Bortezomib + OSI-027; first compound 0.006325 µM) | relative viability (Bortezomib + OSI-027; first compound 0.02 µM) | relative viability ([1]; first compound 0.08 µM) | relative viability ([1]; first compound 0.253 µM) | relative viability ([1]; first compound 0.8 µM) | relative viability ([1]; first compound 2.53 µM) | relative viability ([1]; first compound 8 µM) | relative viability ([2]; first compound 0.08 µM) | relative viability ([2]; first compound 0.253 µM) | relative viability ([2]; first compound 0.8 µM) | relative viability ([2]; first compound 2.53 µM) | relative viability ([2]; first compound 8 µM) | relative viability (Obatoclax + Navitoclax; first compound 0.01 µM) | relative viability (Obatoclax + Navitoclax; first compound 0.03162 µM) | relative viability (Obatoclax + Navitoclax; first compound 0.1 µM) | relative viability (Obatoclax + Navitoclax; first compound 0.3162 µM) | relative viability (Obatoclax + Navitoclax; first compound 1 µM)
201T | 0.694 | 0.75 | 0.753 | 0.551 | 0.138 | 0.454 | 0.461 | 0.415 | 0.373 | 0.258 | 0.838 | 0.837 | 0.828 | 0.819 | 0.487 | 1.23 | 1.2 | 1.18 | 1.21 | 1.31
A549 |  |  |  |  |  | 0.178 | 0.181 | 0.195 | 0.0435 | 0.025 | 0.292 | 0.529 | 0.287 | 0.156 | 0.0245 | 1.2 | 1.29 | 1.16 | 0.682 | 0.0677
A-427 | 0.346 | 0.327 | 0.503 | 0.182 | 0.132 | 0.347 | 0.21 | 0.282 | 0.121 | 0.0986 | 0.815 | 0.774 | 0.913 | 0.468 | 0.158 | 0.864 | 0.917 | 0.95 | 0.986 | 0.959
ABC-1 | 0.476 | 0.296 | 0.193 | 0.183 | 0.2 | 0.199 | 0.192 | 0.26 | 0.234 | 0.187 | 0.904 | 0.946 | 1.01 | 0.647 | 0.324 |  |  |  |  | 
BEN | 0.302 | 0.288 | 0.28 | 0.259 | 0.167 | 0.228 | 0.269 | 0.259 | 0.236 | 0.196 | 0.985 | 1.17 | 0.987 | 0.606 | 0.275 | 0.0996 | 0.0601 | 0.052 | 0.0537 | 0.078
CAL-12T | 0.757 | 0.578 | 0.754 | 0.165 | 0.129 | 0.608 | 0.489 | 0.442 | 0.17 | 0.109 | 0.714 | 0.741 | 0.714 | 0.238 | 0.237 | 1.06 | 1.03 | 1.24 | 0.926 | 0.103
COR-L23 | 0.808 | 0.755 | 0.58 | 0.0553 | 0.0549 | 0.45 | 0.479 | 0.414 | 0.0934 | 0.0951 | 0.335 | 0.339 | 0.32 | 0.126 | 0.0705 | 1.08 | 1.06 | 0.883 | 0.257 | 0.2
COR-L 105 | 0.747 | 0.606 | 0.456 | 0.316 | 0.272 | 0.453 | 0.495 | 0.469 | 0.213 | 0.17 | 0.591 | 0.688 | 0.691 | 0.658 | 0.27 | 0.815 | 0.649 | 0.792 | 0.741 | 0.388
Calu-6 |  |  |  |  |  |  |  |  |  |  | 0.577 | 0.558 | 0.469 | 0.289 | 0.0899 | 0.874 | 0.977 | 0.852 | 0.506 | 0.0891
ChaGo-K-1 | 0.576 | 0.539 | 0.623 | 0.48 | 0.149 | 0.482 | 0.442 | 0.434 | 0.151 | 0.121 | 0.371 | 0.42 | 0.38 | 0.234 | 0.148 | 0.956 | 0.669 |  | 0.955 | 1.32
EBC-1 |  |  |  |  |  |  |  |  |  |  | 0.631 | 0.753 | 0.7 | 0.46 | 0.114 | 0.449 | 0.379 | 0.395 | 0.16 | 0.177
EKVX | 0.725 | 0.672 | 0.79 | 0.605 | 0.109 | 0.236 | 0.21 | 0.236 | 0.189 | 0.109 | 0.779 | 0.804 | 0.904 | 0.695 | 0.157 | 0.86 | 0.618 | 0.98 | 0.924 | 0.922
EMC-BAC-2 | 0.359 | 0.296 | 0.321 | 0.206 | 0.181 | 0.511 | 0.559 | 0.432 | 0.228 | 0.0995 | 0.465 | 0.521 | 0.445 | 0.341 | 0.197 | 1.15 | 1.18 | 1.13 | 1.19 | 1.22
EPLC-272H | 0.306 | 0.282 | 0.286 | 0.125 | 0.106 | 0.315 | 0.24 | 0.258 | 0.147 | 0.135 | 0.725 | 0.901 | 0.496 | 0.12 | 0.0643 | 1.1 | 1.16 | 1.38 | 1.03 | 1.26
H3255 | 0.593 | 0.601 | 0.466 | 0.352 | 0.28 | 0.369 | 0.362 | 0.684 | 0.341 | 0.27 | 0.553 | 0.568 | 0.599 | 0.575 | 0.326 | 0.517 | 0.544 | 0.681 | 0.537 | 0.438
HARA | 0.439 | 0.322 | 0.616 | 0.0379 | 0.0617 | 0.47 | 0.513 | 0.343 | 0.211 | 0.138 | 0.617 | 1.01 | 0.582 | 0.121 | 0.099 | 1.09 | 1.11 | 1.15 | 0.871 | 1.11
HCC-15 | 0.677 | 0.707 | 0.667 | 0.0893 | 0.0735 | 0.472 | 0.452 | 0.434 | 0.107 | 0.0823 | 0.748 | 0.611 | 0.718 | 0.298 | 0.113 | 0.726 | 0.726 | 0.645 | 0.569 | 0.469
